Measured values from ChEMBL document CHEMBL1155476, “A vHTS approach for the identification of beta-adrenoceptor ligands” (Bioorg Med Chem Lett, 2010).
Converted amounts (≈) assume the structure as drawn.

Key:
[1] = target: T1, Beta-2 adrenergic receptor (Homo sapiens, UniProt P07550); test: biochemical
Description: Displacement of [125I]cyanopindolol from human adrenergic beta2 receptor expressed in CHOK1 cells

[2] = target: T2, Beta-3 adrenergic receptor (Homo sapiens, UniProt P13945); test: biochemical
Description: Displacement of [125I]cyanopindolol from human adrenergic beta3 receptor expressed in CHOK1 cells

[3] = target: T3, Beta-1 adrenergic receptor (Homo sapiens, UniProt P08588); test: Displacement of [125I]cyanopindolol from human adrenergic beta-1 receptor expressed in CHOK1 cells; type: cell-based, CHO-K1
Target sequence in this assay (P08588 whole entry): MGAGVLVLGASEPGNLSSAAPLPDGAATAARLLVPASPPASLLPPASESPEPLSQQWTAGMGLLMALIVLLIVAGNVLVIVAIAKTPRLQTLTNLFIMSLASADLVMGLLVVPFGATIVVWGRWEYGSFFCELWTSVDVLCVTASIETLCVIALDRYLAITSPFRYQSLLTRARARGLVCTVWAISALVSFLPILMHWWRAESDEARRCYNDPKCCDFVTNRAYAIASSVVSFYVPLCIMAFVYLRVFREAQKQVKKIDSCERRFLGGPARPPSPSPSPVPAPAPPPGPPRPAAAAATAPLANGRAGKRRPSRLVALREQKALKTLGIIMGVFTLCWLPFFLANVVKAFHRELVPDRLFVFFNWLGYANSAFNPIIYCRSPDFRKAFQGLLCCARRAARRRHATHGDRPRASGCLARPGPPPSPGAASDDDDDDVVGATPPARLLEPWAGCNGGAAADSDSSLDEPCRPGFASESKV

[4] = target: T2, Beta-3 adrenergic receptor
Description: Agonist activity at human adrenergic beta3 receptor expressed in CHOK1 cells assessed as cAMP accumulation by HTRF assay

[5] = target: T3, Beta-1 adrenergic receptor; test: Antagonist activity at human adrenergic beta-1 receptor expressed in CHOK1 cells assessed as inhibition of cAMP accumulation by HTRF assay; type: functional, cell-based, CHO-K1
Target sequence in this assay (P08588 whole entry): as above

[6] = target: T2, Beta-3 adrenergic receptor; test: Antagonist activity at human adrenergic beta3 receptor expressed in CHOK1 cells assessed as inhibition of cAMP accumulation by HTRF assay; type: functional, cell-based, CHO-K1
[7] = Permeability by PAMPA method; type: ADME
[8] = Cmax in Wistar rat at 10 mg/kg, po; type: ADME, organism-based; set-up: dose 10 mg/kg, route oral; conditions: in vivo
[9] = target: T1, Beta-2 adrenergic receptor; test: Antagonist activity at human adrenergic beta2 receptor expressed in CHOK1 cells assessed as inhibition of cAMP accumulation by HTRF assay; type: functional, cell-based, CHO-K1
[10] = Cytotoxicity against human HepG2 cells; type: cell-based; conditions: read-out: ED50 (the source's name)
[11] = Solubility at pH 4; type: physicochemical; conditions: buffer
[12] = Solubility at pH 6; type: physicochemical; conditions: buffer
[13] = target: T3, Beta-1 adrenergic receptor; test: Intrinsic activity at human adrenergic beta-1 receptor expressed in CHOK1 cells assessed as cAMP accumulation by HTRF assay relative to isoproterenol; type: functional, cell-based; conditions: CHO-K1
Target sequence in this assay (P08588 whole entry, looked up): as the sequence (P08588 whole entry) above

[14] = Cytotoxicity against human PBMC cells; type: cell-based; conditions: read-out: ED50 (the source's name)
[15] = target: T3, Beta-1 adrenergic receptor; test: Agonist activity at human adrenergic beta-1 receptor expressed in CHOK1 cells assessed as cAMP accumulation by HTRF assay; type: functional, cell-based, CHO-K1
Target sequence in this assay (P08588 whole entry): as above

[16] = Half life in Wistar rat at 10 mg/kg, po; type: ADME, organism-based; set-up: dose 10 mg/kg, route oral; conditions: in vivo

T2 sequence (P13945 whole entry): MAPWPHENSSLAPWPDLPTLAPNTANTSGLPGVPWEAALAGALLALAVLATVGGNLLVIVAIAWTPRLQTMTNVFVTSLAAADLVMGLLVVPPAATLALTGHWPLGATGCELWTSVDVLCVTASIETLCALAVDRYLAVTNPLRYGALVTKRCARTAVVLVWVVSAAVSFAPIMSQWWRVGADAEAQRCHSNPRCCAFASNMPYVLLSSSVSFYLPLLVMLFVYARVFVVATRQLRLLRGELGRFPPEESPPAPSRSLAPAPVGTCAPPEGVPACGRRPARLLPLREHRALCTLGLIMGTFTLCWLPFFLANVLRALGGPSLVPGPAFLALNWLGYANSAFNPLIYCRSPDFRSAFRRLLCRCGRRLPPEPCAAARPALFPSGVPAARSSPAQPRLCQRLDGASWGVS
T1 sequence (P07550 whole entry): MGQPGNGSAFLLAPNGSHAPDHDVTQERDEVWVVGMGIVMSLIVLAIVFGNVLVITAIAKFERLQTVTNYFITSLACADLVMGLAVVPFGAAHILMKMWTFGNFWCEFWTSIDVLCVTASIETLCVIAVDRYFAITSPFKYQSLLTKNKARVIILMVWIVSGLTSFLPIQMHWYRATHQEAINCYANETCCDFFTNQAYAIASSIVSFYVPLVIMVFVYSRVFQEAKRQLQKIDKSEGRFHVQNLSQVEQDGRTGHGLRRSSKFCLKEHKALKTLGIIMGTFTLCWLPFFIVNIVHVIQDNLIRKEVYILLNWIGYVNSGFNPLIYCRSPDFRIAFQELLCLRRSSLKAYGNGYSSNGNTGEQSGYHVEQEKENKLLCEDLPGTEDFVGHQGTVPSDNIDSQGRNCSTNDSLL

| SMILES | Ki [1] [nM] | Ki [2] [nM] | Ki ([3]; read-out: Ki) [nM] | further results |
| --- | --- | --- | --- | --- |
| C=CCc1ccccc1OCC(O)CNC1CCN(C)CC1 (configuration not stated) | 2.4 | 6220 | 260 |  |
| C=CCc1ccccc1OCC(O)CN1CCC(CN2C(=O)c3cccc4cccc(c34)C2=O)CC1 (configuration not stated) |  | 409 | 80 | EC50 [4]: 2400 nM |
| C=CCc1ccccc1OCC(O)CN1CCN(CCN2C(=O)c3cccc4cccc(c34)C2=O)CC1 (configuration not stated) | 150 | 3100 | 293 |  |
| C=CCc1ccccc1OCC(O)CN1CCC(CN2C(=O)c3cccc4cc(O)cc(c34)C2=O)CC1 (configuration not stated) | 135 | 2200 | 170 |  |
| COc1ccc(CC2CCN(CC(O)COc3cccc4[nH]c5ccccc5c34)CC2)cc1 (configuration not stated) | 0.2 | 455 | 3.4 |  |
| C=CCc1ccccc1OCC(O)CN1CCC(CN2C(=O)c3ccccc3C2=O)CC1 (configuration not stated) | 50 | 3400 | 190 |  |
| O=C1c2cccc3cccc(c23)C(=O)N1C1CCN(CC(O)COc2cccc3[nH]c4ccccc4c23)CC1 (configuration not stated) | 57 | 98 | 76 |  |
| OC(COc1cccc2[nH]c3ccccc3c12)CN1CCC(Cc2cccnc2)CC1 (configuration not stated) | 0.1 | 72 | 1 |  |
| Cc1ccc(C(C)C)c(OCC(O)CN2CCC(CN3C(=O)c4cccc5cccc(c45)C3=O)CC2)c1 (configuration not stated) | 80 | 411 | 1000 | IC50 [5]: 1380 nM; IC50 [6]: 1470 nM |
| Cc1ccc(C(C)C)c(OCC(O)CN2CCN(CCN3C(=O)c4cccc5cccc(c45)C3=O)CC2)c1 (configuration not stated) | 110 | > 10000 |  | Ki ([3]; cho-k1): Not Active |
| O=C1c2cccc3cccc(c23)C(=O)N1CC1CCN(CC(O)COc2cccc3[nH]c4ccccc4c23)CC1 (configuration not stated) | 3 | 225 | 7 |  |
| C=CCc1ccccc1OCC(O)CN1CCC(CN2C(=O)CCCC2=O)CC1 (configuration not stated) | 80 | 11000 | 440 |  |
| O=C1c2cccc3cccc(c23)C(=O)N1CC1CCN(CC(O)COc2cccc3[nH]ccc23)CC1 (configuration not stated) | 120 | 1000 | 27 |  |
| COc1cc2c3c(cccc3c1)C(=O)N(CC1CCN(CC(O)COc3cccc4[nH]c5ccccc5c34)CC1)C2=O (configuration not stated) | 8 | 410 | 0.1 |  |
| O=C1c2cccc3cccc(c23)C(=O)N1CC1CCN(CC(O)COc2ccc3[nH]ccc3c2)CC1 (configuration not stated) | 1260 | 8500 | 4530 |  |
| C=CCc1ccccc1OCC(O)CN1CCC(N2C(=O)c3cccc4cccc(c34)C2=O)CC1 (configuration not stated) | 40 | 2340 | 1050 |  |
| CC(C)c1ccccc1OCC(O)CN1CCC(CN2C(=O)CCCC2=O)CC1 (configuration not stated) | 9 | 2900 | 245 |  |

| SMILES | Ki [1] [nM] | Ki [2] [nM] | Ki ([3]; read-out: Ki) [nM] | further results |
| --- | --- | --- | --- | --- |
| CC(C)c1ccccc1OCC(O)CN1CCC(CN2C(=O)c3cccc4cccc(c34)C2=O)CC1 (configuration not stated) | 230 | 1030 | 250 |  |
| CC(C)c1ccccc1OCC(O)CN1CCN(CCN2C(=O)c3cccc4cccc(c34)C2=O)CC1 (configuration not stated) | 70 | 1480 | 740 |  |
| CC(C)c1ccccc1OCC(O)CN1CCC(CN2C(=O)c3ccccc3C2=O)CC1 (configuration not stated) | 17 | 1480 | 720 |  |
| C=CCc1ccccc1OCC(O)CN1CCOCC1 (configuration not stated) | 7 | 4960 | 114 |  |
| CC(C)c1ccccc1OCC(O)CNC1CCN(C)CC1 (configuration not stated) | 17 | 1060 | 89 |  |
| COc1ccc(OCC(O)CN2CCC(CN3C(=O)c4cccc5cccc(c45)C3=O)CC2)c(C(C)(C)C)c1 (configuration not stated) | 300 | 3380 | 530 |  |
| O=C(c1ccc(F)cc1)C1CCN(CC(O)COc2cccc3[nH]c4ccccc4c23)CC1 (configuration not stated) | 0.3 | 250 | 32 | Activity [7]: Active; Cmax [8]: 290 nM; IC50 [9]: 32 nM; CC50 [10]: 19000 nM; solubility [11]: 180 µM (≈ 80.4 µg/mL); solubility [12]: 10 µM (≈ 4.47 µg/mL); Intrinsic activity [13]: 20%; CC50 [14]: 9000 nM; EC50 [15]: 310 nM; half-life [16]: 7.5 h; EC50 [4]: 385 nM |
| COc1ccc(OCC(O)CNC2CCN(c3ncnc4scc(-c5ccccc5)c34)CC2)cc1 (configuration not stated) |  |  | > 10000 |  |
| COc1cc2c3c(cccc3c1)C(=O)N(CC1CCN(CC(O)COc3ccccc3C(C)C)CC1)C2=O (configuration not stated) | 38 | 698 | 209 |  |
| O=C(c1ccccc1)C1CCN(CC(O)COc2cccc3[nH]c4ccccc4c23)CC1 (configuration not stated) | 0.2 | 230 | 16 |  |
| COc1ccc(C(=O)C2CCN(CC(O)COc3cccc4[nH]c5ccccc5c34)CC2)cc1 (configuration not stated) | 0.2 | 9180 | 13 |  |
| CC(C)c1ccccc1OCC(O)CN1CCC(N2C(=O)c3cccc4cccc(c34)C2=O)CC1 (configuration not stated) | 13 | 3820 | 240 |  |
| C=CCc1ccccc1OCC(O)CN1CCC(CN2C(=O)c3cccc4cc(OC)cc(c34)C2=O)CC1 (configuration not stated) | 78 | 1510 | 300 |  |
| C=CCc1ccc(OCC(O)CN2CCC(CN3C(=O)c4cccc5cccc(c45)C3=O)CC2)c(OC)c1 (configuration not stated) | 3290 | 3290 | 1360 |  |
| CC(C)c1ccccc1OCC(O)CN1CCOCC1 (configuration not stated) | 1.2 | 1770 | 12 |  |
| O=C1c2cccc3cc(O)cc(c23)C(=O)N1CC1CCN(CC(O)COc2cccc3[nH]c4ccccc4c23)CC1 (configuration not stated) | 37 | 590 | 250 | IC50 [9]: 120 nM; Intrinsic activity [13]: 40%; EC50 [15]: 80 nM; EC50 [4]: 234 nM |
| OC(COc1cccc2[nH]c3ccccc3c12)CN1CCC(Cc2ccccc2)CC1 (configuration not stated) | 0.5 | 230 | 14 |  |
